Data taken from patent EP0312245A2, “Polycyclic compounds and pharmaceutical compositions thereof” (NORISTAN HOLDINGS LIMITED, priority 1987, dated 1989).
Values joined by “and” are separate entries in the source; they are usually repeats but may differ in a detail not shown here. Identical values can stand only once. Like-named read-outs stand apart in the source and are kept apart here.

Legend:
[1] = tested on: isolated rabbit ear preparation; experiment: Rabbit ear perfusion test (adrenaline-induced tone, perfusion pressure)
Description: Female New Zealand White rabbits (approximately 4kg) were anaesthetised with Sagatal ® (0.5ml/kg).
The central ear artery was cannulated using a 20 G catheter and the ear cut off at its base. Heparinised (5ml, 200 IU;ml) Krebs bicarbonate solution was perfused through the ear to expel the blood. The ear was placed in a warming jacket at 37°C and attached via the arterial catheter to the perfusion pump. Perfusion of the ear with aerated (95% 025% C02)Krebs bicarbonate solution at 37° C was commenced at a rate of 6.5ml/min using a Watson Marlow peristaltic pump. The perfusion pressure was monitored continuously using a pressure transducer (Type 4-327-1221, Consoliated Electrodynamics) coupled to a Devices Recorder.
Following an equilibration period of 15 minutes, increased tone was induced in the preparation by addition of adrenaline (1µg/ml) to the perfusion fluid.
After a stable tone was observed, various concentrations of test compounds were injected into the perfusion fluid and examined for their effect on the perfusion pressure. The effect of vehicle (0.2ml, 50% Krebs 50% ethanol) was also tested on the ear preparation.

[2] = tested on: spontaneously hypertensive rats (SHR ); experiment: Antihypertensive test: mean arterial pressure in spontaneously hypertensive rats; assay type: in vivo, rat; set-up: mean arterial BP (individual rats): unit not given here; conditions: SHR, 1mg/kg intravenous; for mean arterial BP (individual rats): rats 1-6, 1 mg/kg; for mean arterial BP, Av. / Average % change in mean arterial BP: standard error of the mean in brackets; for Average % change in mean arterial BP: versus pre-dose control
Description: (§1) The effect of Compound 3 on the mean arterial pressure was determined on spontaneously hypertensive rats (SHR ) by means of direct pressure transducing. Groups of 6 male rats of mass 210-300g were used. The average of ten pressure determinations was used. Normotensive (BD-9) rats were used as animal controls, while normal saline solution (containing some traces of polyethylene glycol and ethanol to aid in the solution of the test compounds) was used as solvent and as solvent control.
(§2) After verifying the mass of the animal, it was placed under general anaesthesia by administering 60mgikg pentobarbitone (Sagatal@) intraperitonially. The tracheal tube and carotid artery were both exposed by dissection. An intranule was introduced into the trachea as aid ventilation. The carolid artery was canalated and coupled to a pressure sensor. The sysolic, diastolic and mean arterial pressure were monitored via a Spacelab 514 patient monitor and registered on a Vitatek 551 plotter. During the experiment the exposed tissue of the rat was covered with guaze and kept damp with normal saline.
(§3) The drugs and solvent controls were administered intravenously into the dorsal penile vein after stabilization of the blood pressure (BP) had occurred. After drug administration, the BP was recorded every 5 minutes for a period of 30 min.

BD-9 rats (normatensive) = experiment: Antihypertensive test: mean arterial pressure in normotensive BD-9 rats; assay type: in vivo, rat; set-up: mean arterial BP (individual rats): unit not given here; conditions: 1mg/kg intravenous; for mean arterial BP (individual rats): rats 1-6, 1 mg/kg; for mean arterial BP, Av. / Average % change in mean arterial BP: standard error of the mean in brackets; for Average % change in mean arterial BP: versus pre-dose control
Description: as §1, §2, §3

[3] = tested on: guinea-pig papillary muscle; experiment: Electrophysiological test: action potential of guinea-pig papillary muscle (microelectrode technique); conditions: for minimal effective concentration: Cavia porcellus; for TIME 1 (Shortest time needed to attain suppression): at the listed bath concentration; for DEGREE OF SUPPRESSION: suppression of action potential at the listed bath concentration
Description: Electrophysiological studies were conducted on guinea-pig papillary muscle.
Using a microelectrode technique, action potentials were measured from guinea-pig papillary muscles. Action potentials were evoked by electrical stimulation (platinum electrode, Grass S88 stimulator, 1 Hz stimulation frequency; voltage, 10% above threshold). […] The preparations were electrically driven (pacing intervals 1 s, duration 2-5 ms). Slow (Ca2+ mediated) action potentials were evoked in a depolarizing solution (22 mmol/l K and 5 mmol/I Ca^2+) at 0,35 Hz stimulation frequency in order to ensure complete removal of inactivation of slow inward current.

## COC(=O)C1=C(C)NC(C)=C(C(=O)OC)C1c1ccccc1[N+](=O)[O-] [Nifedipine]
[1]; Oryctolagus cuniculus, Table 6, dose 10 μg, read-out: Corrected mean % change in perfusion pressurre
  inhibition at 0.01 mg: 4%
[1]; Oryctolagus cuniculus, Table 6, dose 31.6 μg, read-out: Corrected mean % change in perfusion pressurre
  inhibition at 0.0316 mg: 0.5%
[1]; Oryctolagus cuniculus, Table 6, dose 100 μg, read-out: Corrected mean % change in perfusion pressurre
  inhibition at 0.1 mg: 9.5%
[1]; Oryctolagus cuniculus, Table 6, dose 316 μg, read-out: Corrected mean % change in perfusion pressurre
  inhibition at 0.316 mg: -26%
[1]; Oryctolagus cuniculus, Table 6, dose 1000 μg, read-out: Corrected mean % change in perfusion pressurre
  inhibition at 1 mg: 39.5%
[2]; 5 min
  mean arterial BP (individual rats): 105 and 67 and 88 and 85 and 80 and 74
  mean arterial BP, Av.: 83(5)
  Average % change in mean arterial BP: 44(5.4) %
[2]; 10 min
  mean arterial BP (individual rats): 96 and 64 and 104 and 88 and 81 and 74
  mean arterial BP, Av.: 85(6)
  Average % change in mean arterial BP: 43(6.0) %
[2]; 15 min
  mean arterial BP (individual rats): 95 and 68 and 107 and 93 and 84 and 77
  mean arterial BP, Av.: 87(6)
  Average % change in mean arterial BP: 41(5.8) %
[2]; 20 min
  mean arterial BP (individual rats): 93 and 69 and 92 and 100 and 83 and 80
  mean arterial BP, Av.: 86(5)
  Average % change in mean arterial BP: 42(4.2) %
[2]; 25 min
  mean arterial BP (individual rats): 95 and 71 and 93 and 106 and 79 and 84
  mean arterial BP, Av.: 88(5)
  Average % change in mean arterial BP: 41(4.4) %
[2]; 30 min
  mean arterial BP (individual rats): 95 and 73 and 93 and 110 and 81 and 85
  mean arterial BP, Av.: 90(5)
  Average % change in mean arterial BP: 40(4.3) %
BD-9 rats (normatensive); 5 min
  mean arterial BP (individual rats): 67 and 59 (2×) and 80 and 74 and 60
  mean arterial BP, Av.: 67(4)
  Average % change in mean arterial BP: 38(5.5) %
BD-9 rats (normatensive); 10 min
  mean arterial BP (individual rats): 65 and 67 (2×) and 74 and 69 and 66
  mean arterial BP, Av.: 68(1)
  Average % change in mean arterial BP: 37(4.4) %
BD-9 rats (normatensive); 15 min
  mean arterial BP (individual rats): 68 and 66 (2×) and 65 and 74 and 63
  mean arterial BP, Av.: 67(2)
  Average % change in mean arterial BP: 38(3.8) %
BD-9 rats (normatensive); 20 min
  mean arterial BP (individual rats): 67 and 60 and 62 and 77 and 65 and 64
  mean arterial BP, Av.: 66(2)
  Average % change in mean arterial BP: 39(3.1) %
BD-9 rats (normatensive); 25 min
  mean arterial BP (individual rats): 63 (2×) and 55 and 62 and 80 and 67
  mean arterial BP, Av.: 65(3)
  Average % change in mean arterial BP: 40(2.8) %
BD-9 rats (normatensive); 30 min
  mean arterial BP (individual rats): 61 and 57 and 63 and 79 and 60 and 62
  mean arterial BP, Av.: 64(3)
  Average % change in mean arterial BP: 41(3.4) %

## CCCCNC12OC3C4C5CC(C6C5C3C61)C42 (racemic) [Compound 2, 8-η-Butylamino-8,11-oxopentacyclo[5.4.0.0^2,6 .0^3,10 .0^5,9]undecane]
[3]; read-out: BATH CONCENTRATION (Lowest concentration of the compound to induce suppression of action potential), Table 3, guinea-pig papillary muscle
  minimal effective concentration: 150 µM
[3]; read-out: BATH CONCENTRATION (Lowest concentration of the compound to induce suppression of action potential), Table 4, racemates and optical isomers
  minimal effective concentration: 150 µM
[3]; Table 3
  TIME 1 (Shortest time needed to attain suppression): 29 min
  DEGREE OF SUPPRESSION: very little
[3]; Table 4
  TIME 1 (Shortest time needed to attain suppression): 25 min
  DEGREE OF SUPPRESSION: little
[1]; Oryctolagus cuniculus, Table 5, dose 100 µg, read-out: Mean % change in perfusion pressure
  inhibition at 0.1 mg: 7.5%
[1]; Oryctolagus cuniculus, Table 5, dose 316 µg, read-out: Mean % change in perfusion pressure
  inhibition at 0.316 mg: 8%
[1]; Oryctolagus cuniculus, Table 5, dose 1000 µg, read-out: Mean % change in perfusion pressure
  inhibition at 1 mg: 12%
[1]; Oryctolagus cuniculus, Table 5, dose 3160 µg, read-out: Mean % change in perfusion pressure
  inhibition at 3.16 mg: 26%
[1]; Table 5, dose 1000 µg
  Mean time taken to return to pre-dose volume: 5.5 min
[1]; Table 5, dose 3160 µg
  Mean time taken to return to pre-dose volume: 5.75 min
